Data: the supplement of paper PMC3937590

Key:
Test in all cases: -log10 GI50 (growth inhibition 50%) (-log10(M)); higher = more potent growth inhibition
HCC1937 = system: HCC1937
Summary of the method: (§1)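 Dose-response data came from breast cancer cell lines exposed to each compound for 72 hours at nine doses in 1:5 serial dilution, in triplicate, and read by luminescence relative to a time-zero plate. A Gompertz curve fitted by nonlinear least squares gave GI50, the molar concentration for the set level of growth inhibition, reported as its negative logarithm to base 10. Where a value equals the top dose, it carries a < qualifier.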

HCC70 = system: HCC70
Summary of the method: as §1

MCF7 = system: MCF7
Summary of the method: as §1

HCC1954 = system: HCC1954
Summary of the method: as §1

MCF10F = system: MCF10F
Summary of the method: as §1

MDAMB157 = system: MDAMB157
Summary of the method: as §1

MCF10A = system: MCF10A
Summary of the method: as §1

UACC812 = system: UACC812
Summary of the method: as §1

CAMA1 = system: CAMA1
Summary of the method: as §1

MDAMB453 = system: MDAMB453
Summary of the method: as §1

MDAMB175VII = system: MDAMB175VII
Summary of the method: as §1

HCC1187 = system: HCC1187
Summary of the method: as §1

ZR75B = system: ZR75B
Summary of the method: as §1

MDAMB134VI = system: MDAMB134VI
Summary of the method: as §1

T47D = system: T47D
Summary of the method: as §1

HS578T = system: HS578T
Summary of the method: as §1

HCC38 = system: HCC38
Summary of the method: as §1

SUM149PT = system: SUM149PT
Summary of the method: as §1

184A1 = system: 184A1
Summary of the method: as §1

| Structure (SMILES) | -log10 GI50 (HCC1937) | -log10 GI50 (HCC70) | -log10 GI50 (MCF7) | -log10 GI50 (HCC1954) | -log10 GI50 (MCF10F) | -log10 GI50 (MDAMB157) | -log10 GI50 (MCF10A) | -log10 GI50 (UACC812) | -log10 GI50 (CAMA1) | -log10 GI50 (MDAMB453) | -log10 GI50 (MDAMB175VII) | -log10 GI50 (HCC1187) | -log10 GI50 (ZR75B) | -log10 GI50 (MDAMB134VI) | -log10 GI50 (T47D) | -log10 GI50 (HS578T) | -log10 GI50 (HCC38) | -log10 GI50 (SUM149PT) | -log10 GI50 (184A1) |
| --- | --- | --- | --- | --- | --- | --- | --- | --- | --- | --- | --- | --- | --- | --- | --- | --- | --- | --- | --- |
| CC(=O)Nc1cccc(-n2c(=O)n(C3CC3)c(=O)c3c(Nc4ccc(I)cc4F)n(C)c(=O)c(C)c32)c1 | < 4.78 | 8.18 | < 4.78 | 6.79 | 8.06 | 6.57 | 8.23 | < 4.78 | < 4.78 | 6.64 | 7.88 | < 4.78 | < 4.78 | 8.33 | < 4.78 | 7.47 | < 4.78 | 7.64 | 8.67 |
| CC(C)Oc1ccc(C(=O)N[C@H](CNC(=O)CN(C)C)Cc2ccc(-c3cn4cccc([C@H](C)O)c4n3)cc2)cc1Cl | 7.36 | 7.68 | 5.74 | 7.6 | 6.29 | 7.48 | 7.29 | 7.94 | 7.33 |  | 6.76 | 7.52 | 7.18 | 6.52 | 7.29 | 7.32 | 7.32 | 7.17 | 5.1 |
| CCNCCCNC/C=C\CNCCCNCC | 5.24 | 5.9 | 3.46 | 6.52 | 3.76 | 2.96 | 4.2 | 3.47 | 2.91 | 4.26 | 3.21 | 3.16 | 3.61 | 2.97 | 5.67 | 4.54 | 5.26 | 4.55 | 3.2 |
| CCn1cc(-c2ccnc3[nH]c(-c4cccc(CN(C)C)c4)cc23)c(-c2ccc(NC(=O)N(C)C)cc2)n1 | 5.73 | 6.58 | 5.06 | 5.57 | 5.69 | 6.23 | 6.12 | 5.07 | 5.05 | 5.54 | 5.07 | 7.95 | 5.85 | 5.59 | 5.36 | 6.42 | 6.53 | 5.55 | 6.1 |
| C[C@@H](Oc1cc(-n2cnc3ccc(CN4CCN(C)CC4)cc32)sc1C(N)=O)c1ccccc1C(F)(F)F | 7.5 | 7.78 | 6.5 | 8.16 | 7.11 | 8.02 | 7.37 | 4.99 | 5.17 | 8.02 | 5.21 | 7.48 | 7.06 | 7.83 | 5.56 | 7.71 |  | 7.96 | 5.18 |
| O=C1NC(=O)/C(=C/c2ccc3nccc(-c4ccncc4)c3c2)S1 | 6.09 | 6.75 | 5.56 | 6.68 | 6.71 | 6.17 | 6.57 | 6.62 | 5.77 | 6.52 | 6.33 | 6.84 | 6.51 | 6.33 | 6.95 | 5.74 | 6.11 | 6.01 | 7.78 |
| C=CCNC1=C2C[C@@H](C)C[C@H](OC)[C@H](O)[C@@H](C)/C=C(\C)[C@H](OC(N)=O)[C@@H](OC)/C=C\C=C(/C)C(=O)NC(=CC1=O)C2=O [17-AAG] | 6.88 | 6.62 | 6.25 | 7.5 | 7.5 |  | 7.4 | 7.96 | 6.6 | 7.36 | 7.39 | 5.29 | 7.27 | 7.42 | 5.97 | 6.96 | 7.24 | 7.01 | 7.93 |
| COc1cc2ncnc(Nc3cccc(Cl)c3)c2cc1OC [AG1478] | 4.89 | 4.21 | 4.05 | 5.64 | 6.69 | 4.48 | 6.65 |  | 4.46 | < 3.78 | 6.08 | < 3.78 | < 3.78 | 4.32 | 4.74 | 4.06 | 3.9 | 5.93 |  |
| CCc1c2c(nc3ccc(OC(=O)N4CCC(N5CCCCC5)CC4)cc13)-c1cc3c(c(=O)n1C2)COC(=O)[C@]3(O)CC [CPT-11] | 5.14 | 4.97 | 4.64 | 4.72 | 5.18 | 5.43 | 5.7 | 5.49 | 4.84 | 5.19 | 4.17 | 4.35 | 5.82 | 4.94 | 6.31 | 4.5 | 6.14 |  | 5.44 |
| O=C(O)C1(C(=O)O)CCC1.[NH2-].[NH2-].[Pt+2] [Carboplatin] | 4.47 | 4.82 | 3.64 | 4.42 | 4.41 | 4.07 | 4.2 | 4.76 | 3.72 | 4.27 | 4.44 | 4.66 | 3.52 | 3.66 | 4.02 | 4.1 | 4.76 | 4.82 | 4.9 |
| N.N.[Cl][Pt][Cl] [Cisplatin] | 5.48 | 5.8 | 4.66 | 5.29 | 5.42 | 4.62 | 5.1 | 5.48 | 4.39 | 5.16 | 5.37 | 5.67 | 4.06 | 3.73 | 5.27 | 5.16 | 5.78 | 5.8 | 5.53 |
| CC(=O)O[C@@]12CO[C@@H]1C[C@H](O)[C@@]1(C)C(=O)[C@H](O)C3=C(C)[C@@H](OC(=O)[C@H](O)[C@@H](NC(=O)OC(C)(C)C)c4ccccc4)C[C@@](O)([C@@H](OC(=O)c4ccccc4)[C@H]21)C3(C)C [Docetaxel] |  | 8.49 | 7.91 | 8.78 | 8.59 | 8.76 | 8.63 | 8.39 |  | 8.32 | 7.8 | 8.61 | 8.03 | 7.81 | 8.51 | 8.76 | 8.69 | 8.76 | 6.13 |
| COc1cccc2c1C(=O)c1c(O)c3c(c(O)c1C2=O)C[C@@](O)(C(=O)CO)C[C@@H]3O[C@H]1C[C@H](N)[C@H](O)[C@H](C)O1 [Doxorubicin] | 6.49 | 5.36 | 6.11 | 6.74 | 6.64 | 6.49 | 6.79 | 7.12 | 6.58 | 6.67 | 6.48 | 7.3 | 6.67 | 5.95 | 7.37 | 6.31 | 7.14 |  | 6.95 |
| COc1cccc2c1C(=O)c1c(O)c3c(c(O)c1C2=O)C[C@@](O)(C(=O)CO)C[C@@H]3O[C@H]1C[C@H](N)[C@@H](O)[C@H](C)O1 [Epirubicin] | 6.69 | 6.35 | 6.45 | 6.7 | 6.32 | 6.31 | 6.71 |  |  | 6.66 | 7.05 | 6.33 | 6.94 | 5.98 |  | 6.44 | 7.07 | 6.66 | 6.68 |
| O=c1[nH]cc(F)c(=O)[nH]1 [Fluorouracil] | 3.66 | 3.99 | 4.37 | 4.79 | 5.37 | 3.11 | 4.95 | 4.34 | 3.51 | 4.02 | 3.96 | 4.04 | 4.95 | 2.66 |  | 4.34 | 3.72 | 4.14 | 3.88 |
| COc1cc2ncnc(Nc3ccc(F)c(Cl)c3)c2cc1OCCCN1CCOCC1 [Gefitinib] | 5.08 | 5.05 | < 4.48 | 5.92 | 6.16 | 4.92 | 6.17 | 6.04 |  | 5.13 | 6.55 | 4.53 | 4.67 | 4.72 | 4.8 | 4.76 | 4.75 | 5.62 | < 4.48 |
| COC1=C2C[C@@H](C)C[C@H](OC)[C@H](O)[C@@H](C)/C=C(\C)[C@H](OC(N)=O)[C@@H](OC)/C=C\C=C(/C)C(=O)NC(=CC1=O)C2=O [Geldanamycin] | 7.49 | 7.09 | 6.62 | 8.14 | 8.14 | 7.71 | 8.23 | 7.97 | 7.47 | 7.69 | 7.75 | 7.8 | 7.05 | 7.8 | 7.62 | 7.28 | 7.56 | 8.22 | 8.41 |
| Nc1ccn([C@@H]2O[C@H](CO)[C@@H](O)C2(F)F)c(=O)n1 [Gemcitabine] | 5.97 | 4.58 | 4.77 | 4.51 | 7.08 |  | 7.7 | 7.75 | 6.79 |  | 8.12 | 5.07 | 7.34 | 2.85 | 6.02 | 5.66 | 8.17 | 7.84 | 6.16 |
| O=C(c1ccc(Nc2nccc(-c3cc4ccccc4s3)n2)cc1)N1CCC(N2CCCC2)CC1 [IKK 16] | 5.59 | 5.54 |  | 5.77 | 5.37 | 5.74 | 5.56 | 5.09 | 5.57 | 5.55 |  | 5.25 |  | 5.26 | 5.55 | 5.53 | 5.45 | 5.82 | 6.05 |
| O=C(O)C(=O)O.[NH-][C@@H]1CCCC[C@H]1[NH-].[Pt+2] [Oxaliplatin] | 5.1 | 5.38 | 5.31 | 5.95 | 5.35 | 4.8 | 5.41 | 5.85 |  | 5.19 | 5.44 | 5.85 | 5.52 | 3.54 | 5.55 | 4.74 |  | 5.83 | 5.89 |
| CNC(=O)c1cc(Oc2ccc(NC(=O)Nc3ccc(Cl)c(C(F)(F)F)c3)cc2)ccn1 [Sorafenib] | 3.76 | 4.45 | 4.19 | 4.29 | 4.46 | 3.78 | 4.31 |  | 4.22 | 3.09 | 4.46 | 4.49 | 3.16 | 4.54 | 4.59 | < 3 | 4.07 | 4.8 | 5.53 |
| CC[C@@]1(O)C(=O)OCc2c1cc1n(c2=O)Cc2cc3c(CN(C)C)c(O)ccc3nc2-1 [Topotecan] |  | 6.3 | 5.89 | 6.55 | 6.67 | 6.4 | 7.23 | 7.3 | 6.4 | 7.07 | 5.95 | 6.51 | 7.26 | 6.94 |  | 4.8 | 8.61 |  | 6.88 |
| CCC1=C[C@@H]2CN(C1)Cc1c([nH]c3ccccc13)[C@@](C(=O)OC)(c1cc3c(cc1OC)N(C)[C@H]1[C@@](O)(C(=O)OC)[C@H](OC(C)=O)[C@]4(CC)C=CCN5CC[C@]31[C@@H]54)C2 [Vinorelbine] | 6.65 | 7.66 | 7.85 | 6.24 | 7.75 | 7.89 | 7.43 | 7.13 | 7.88 | 8.8 | 7.41 | 7.64 | 8.05 | 7.95 | 5.34 | 7.99 | 7.94 | 7.85 |  |
